Results: patent US12606541B2, “PPARg modulators and methods of use” (Eisai R&D Management Co., Ltd., priority 2020, dated 2026)

Target: T1, His6-TEV-PPARγ-(234-505) (Homo sapiens, UniProt P37231)
T1 construct: The His6-TEV-PPARγ-(234-505) protein for assay was expressed and purified; TEV cleavage site (N); made in house
T1 sequence (P37231 234-505): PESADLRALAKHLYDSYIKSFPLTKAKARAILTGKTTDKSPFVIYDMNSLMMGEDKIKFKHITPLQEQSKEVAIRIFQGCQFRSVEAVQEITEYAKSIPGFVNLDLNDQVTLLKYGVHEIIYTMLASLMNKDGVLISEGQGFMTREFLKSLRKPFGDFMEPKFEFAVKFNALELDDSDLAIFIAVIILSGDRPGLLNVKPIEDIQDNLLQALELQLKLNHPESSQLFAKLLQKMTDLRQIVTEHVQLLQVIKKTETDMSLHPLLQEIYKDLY
Assay: TR-FRET Assay to Measure Co-R Peptide Recruitment to PPARγ
Type: biochemical
Conditions: Co-R peptide recruitment to PPARγ; read-out: TR-FRET AC50
Method in brief: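 Corepressor recruitment is measured by adding terbium-labeled anti-His antibody and FITC SMRT-ID2 peptide, at 5 and 200 nM final, after a 20-minute room-temperature protein–compound incubation. After one further hour, signal is converted to percent response between DMSO and 500 nM T0070907 wells.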

AC50, > 1 µM:
CC1CCCCC1NC(=O)C1CCN(C(=O)c2cc(-c3ccncc3)[nH]n2)CC1 (stereo not shown) [N-(2-methylcyclohexyl)-1-[5-(pyridin-4-yl)-1H-pyrazole-3-carbonyl]piperidine-4-carboxamide], O=C(NCCc1ccccc1)C1CCN(C(=O)c2cc(-c3ccncc3)[nH]n2)CC1 [N-(2-phenylethyl)-1-[5-(pyridin-4-yl)-1H-pyrazole-3-carbonyl]piperidine-4-carboxamide], CC(CNC(=O)C1CCCN(C(=O)c2cc(-c3ccncc3)[nH]n2)C1)c1ccccc1 (stereo not shown) [N-(2-phenylpropyl)-1-[5-(pyridin-4-yl)-1H-pyrazole-3-carbonyl]piperidine-3-carboxamide], Cc1ccc(NC(=O)C2CCN(C(=O)c3cc(-c4ccncc4)[nH]n3)CC2)cc1Cl [N-(3-chloro-4-methylphenyl)-1-[5-(pyridin-4-yl)-1H-pyrazole-3-carbonyl]piperidine-4-carboxamide], O=C(Nc1cccc(Cl)c1)C1CCN(C(=O)c2cc(-c3ccncc3)[nH]n2)CC1 [N-(3-chlorophenyl)-1-[5-(pyridin-4-yl)-1H-pyrazole-3-carbonyl]piperidine-4-carboxamide], CC(C)CCNC(=O)C1CCN(C(=O)c2cc(-c3ccncc3)[nH]n2)CC1 [N-(3-methylbutyl)-1-[5-(pyridin-4-yl)-1H-pyrazole-3-carbonyl]piperidine-4-carboxamide], CC1CCCC(NC(=O)C2CCN(C(=O)c3cc(-c4ccncc4)[nH]n3)CC2)C1 (stereo not shown) [N-(3-methylcyclohexyl)-1-[5-(pyridin-4-yl)-1H-pyrazole-3-carbonyl]piperidine-4-carboxamide], Cc1cnccc1NC(=O)C1CCN(C(=O)c2cc(-c3ccncc3)[nH]n2)CC1 [N-(3-methylpyridin-4-yl)-1-[5-(pyridin-4-yl)-1H-pyrazole-3-carbonyl]piperidine-4-carboxamide], COc1cc(-c2cc(C(=O)N3CCC(C(=O)NC4CCC(F)(F)CC4)CC3)n[nH]2)ccn1 [N-(4,4-difluorocyclohexyl)-1-[5-(2-methoxypyridin-4-yl)-1H-pyrazole-3-carbonyl]piperidine-4-carboxamide], O=C(NC1CCC(F)(F)CC1)C1CCN(C(=O)c2cc(-c3ccncc3)[nH]n2)CC1 [N-(4,4-difluorocyclohexyl)-1-[5-(pyridin-4-yl)-1H-pyrazole-3-carbonyl]piperidine-4-carboxamide], COc1cc(-c2cc(C(=O)N3CCC(C(=O)NC4CCC(C)(C)CC4)CC3)n[nH]2)ccn1 [N-(4,4-dimethylcyclohexyl)-1-[5-(2-methoxypyridin-4-yl)-1H-pyrazole-3-carbonyl]piperidine-4-carboxamide], O=C(Nc1ccc(Cl)cc1)C1CCCN(C(=O)c2cc(-c3ccncc3)[nH]n2)C1 (stereo not shown) [N-(4-chlorophenyl)-1-[5-(pyridin-4-yl)-1H-pyrazole-3-carbonyl]piperidine-3-carboxamide], O=C(Nc1ccc(Cl)cc1)C1CCN(C(=O)c2cc(-c3ccncc3)[nH]n2)CC1 [N-(4-chlorophenyl)-1-[5-(pyridin-4-yl)-1H-pyrazole-3-carbonyl]piperidine-4-carboxamide], COc1ccc(NC(=O)C2CCN(C(=O)c3cc(-c4ccncc4)[nH]n3)CC2)c(C)c1 [N-(4-methoxy-2-methylphenyl)-1-[5-(pyridin-4-yl)-1H-pyrazole-3-carbonyl]piperidine-4-carboxamide], COC1CCC(NC(=O)C2CCN(C(=O)c3cc(-c4ccncc4)[nH]n3)CC2)CC1 (stereo not shown) [N-(4-methoxycyclohexyl)-1-[5-(pyridin-4-yl)-1H-pyrazole-3-carbonyl]piperidine-4-carboxamide], COc1ccc(NC(=O)C2CCN(C(=O)c3cc(-c4ccncc4)[nH]n3)CC2)cc1 [N-(4-methoxyphenyl)-1-[5-(pyridin-4-yl)-1H-pyrazole-3-carbonyl]piperidine-4-carboxamide], COc1ccnc(NC(=O)C2CCN(C(=O)c3cc(-c4ccncc4)[nH]n3)CC2)c1 [N-(4-methoxypyridin-2-yl)-1-[5-(pyridin-4-yl)-1H-pyrazole-3-carbonyl]piperidine-4-carboxamide], CC1CCC(NC(=O)C2CCN(C(=O)c3cc(-c4ccncc4)[nH]n3)CC2)CC1 (stereo not shown) [N-(4-methylcyclohexyl)-1-[5-(pyridin-4-yl)-1H-pyrazole-3-carbonyl]piperidine-4-carboxamide], CC1CCC(NC(=O)C2CCN(C(=O)c3cc(-c4ccncn4)[nH]n3)CC2)CC1 (stereo not shown) [N-(4-methylcyclohexyl)-1-[5-(pyrimidin-4-yl)-1H-pyrazole-3-carbonyl]piperidine-4-carboxamide], CC1CCC(NC(=O)C2CCN(C(=O)c3cc(-c4ccnc(N5CCCC5)c4)[nH]n3)CC2)CC1 (stereo not shown) [N-(4-methylcyclohexyl)-1-{5-[2-(pyrrolidin-1-yl)pyridin-4-yl]-1H-pyrazole-3-carbonyl}piperidine-4-carboxamide], CC1CCC(NC(=O)C2CCN(C(=O)c3cc(-c4ccnc(C(F)(F)F)c4)[nH]n3)CC2)CC1 (stereo not shown) [N-(4-methylcyclohexyl)-1-{5-[2-(trifluoromethyl)pyridin-4-yl]-1H-pyrazole-3-carbonyl}piperidine-4-carboxamide], CC1(NC(=O)C2CCN(C(=O)c3cc(-c4ccncc4)[nH]n3)CC2)CCOCC1 [N-(4-methyloxan-4-yl)-1-[5-(pyridin-4-yl)-1H-pyrazole-3-carbonyl]piperidine-4-carboxamide], Cc1ccc(NC(=O)C2CCN(C(=O)c3cc(-c4ccncc4)[nH]n3)CC2)cc1 [N-(4-methylphenyl)-1-[5-(pyridin-4-yl)-1H-pyrazole-3-carbonyl]piperidine-4-carboxamide], O=C(NC1CCC(c2ccccc2)CC1)C1CCN(C(=O)c2cc(-c3cccnc3)[nH]n2)CC1 (stereo not shown) [N-(4-phenylcyclohexyl)-1-[5-(pyridin-3-yl)-1H-pyrazole-3-carbonyl]piperidine-4-carboxamide], O=C(NC1CCC(c2ccccc2)CC1)C1CCN(C(=O)c2cc(-c3ccncc3)[nH]n2)CC1 (stereo not shown) [N-(4-phenylcyclohexyl)-1-[5-(pyridin-4-yl)-1H-pyrazole-3-carbonyl]piperidine-4-carboxamide], O=C(Nc1ccc(F)cn1)C1CCN(C(=O)c2cc(-c3ccncc3)[nH]n2)CC1 [N-(5-fluoropyridin-2-yl)-1-[5-(pyridin-4-yl)-1H-pyrazole-3-carbonyl]piperidine-4-carboxamide], Cc1ccc(NC(=O)C2CCN(C(=O)c3cc(-c4ccncc4)[nH]n3)CC2)nn1 [N-(6-methylpyridazin-3-yl)-1-[5-(pyridin-4-yl)-1H-pyrazole-3-carbonyl]piperidine-4-carboxamide], O=C(NCC1CC1)C1CCN(C(=O)c2cc(-c3ccncc3)[nH]n2)CC1 [N-(cyclopropylmethyl)-1-[5-(pyridin-4-yl)-1H-pyrazole-3-carbonyl]piperidine-4-carboxamide]
